USRE47689E1, “Compounds for treating spinal muscular atrophy” (PTC Therapeutics, Inc., priority 2011, dated 2019)

How the values were obtained:
[1] = test system: SMN2 minigene (full length SMN2 minigene mRNA containing SMN2 exon 7); test: SMN2 minigene mRNA splicing RT-qPCR assay in cultured cells; type: cell-based, human; conditions: HEK293H cells stably transfected with SMN2-A minigene, 24 hours, 7-point concentration curve, 1.5-fold relative to vehicle-treated cells; for EC (1.5-fold): Homo sapiens, HEK293-H, read-out: EC1.5x for production of full length SMN2 mRNA
Summary of the method: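 Lysates → one-step RT-qPCR, minigene-specific primers (0.4 μM final) + GAPDH multiplex, 40 cycles. FL/GAPDH vs DMSO; EC1.5x, star-binned.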

Smn protein = Smn protein assay in cultured cells (SMN HTRF); type: cell-based, human; conditions: 48 hours; for EC1.5x (concentration giving 1.5-fold Smn protein increase): SMA Type 1 patient fibroblast cells (GM03813), 7-point concentration curve, SMN HTRF, concentration producing 1.5 times Smn protein vs DMSO vehicle control, read-out: EC1.5x for Smn protein expression; for maximum fold (Fold) increase of Smn protein: SMA patient fibroblast cells, 7-point concentration data, fold increase relative to vehicle control (SMN HTRF)
Summary of the method: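 Smn in SMA fibroblast lysates, measured by anti-SMN HTRF after 48 h compound exposure; EC1.5x from fold change over vehicle.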

SMILES	EC (1.5-fold) [1] [µM]	EC1.5x (concentration giving 1.5-fold Smn protein increase) (Smn protein) [nM]	maximum fold (Fold) increase of Smn protein (Smn protein)	melting point [°C]	EC1.5x for production of full length SMN2 mRNA [1]
Cc1cn2cc(-c3cc4ccc(OCCN5CCC(O)CC5)cc4oc3=O)nc2c(C)n1 [Compound 957, 3-(6,8-dimethylimidazo[1,2-a]pyrazin-2-yl)-7-[2-(4-hydroxypiperidin-1-yl)ethoxy]-2H-chromen-2-one]	< 0.1	300 to 1000	**** (fold increase between >1.5 and ≤1.65)	187 to 190	–
Cc1cn2cc(-c3cc4ccc(Cn5ccnc5)cc4oc3=O)nc2c(C)n1 [Compound 851, 3-(6,8-dimethylimidazo[1,2-a]pyrazin-2-yl)-7-(1H-imidazol-1-ylmethyl)-2H-chromen-2-one]	1 to 3	–	*** (fold increase between >1.35 and ≤1.5)	286 to 292	–
Cc1cn2cc(-c3cc4ccc(N5C[C@H]6CCCN[C@H]6C5)cc4oc3=O)nc2c(C)n1 [Compound 781, 3-(6,8-dimethylimidazo[1,2-a]pyrazin-2-yl)-7-[(4aR,7aR)-octahydro-6H-pyrrolo[3,4-b]pyridin-6-yl]-2H-chromen-2-one]	–	–	** (fold increase between >1.2 and ≤1.35)	246 to 252	***** (EC1.5x≤0.1 μM)
Cl.O=c1oc2cc(N3CCCNCC3)ccc2cc1-c1cn2cccnc2n1 [Compound 186, 7-(1,4-diazepan-1-yl)-3-(imidazo[1,2-a]pyrimidin-2-yl)-2H-chromen-2-one hydrochloride]	0.1 to 0.3	1000 to 3000	*** (fold increase between >1.35 and ≤1.5)	> 300	–
Cc1ccn2cc(-c3cc4ccc(N5CCNC6(CCCC6)C5)cc4oc3=O)nc2c1 [Compound 596, 7-(6,9-diazaspiro[4.5]dec-9-yl)-3-(7-methylimidazo[1,2-a]pyridin-2-yl)-2H-chromen-2-one]	0.3 to 1	–	** (fold increase between >1.2 and ≤1.35)	180	–
Cc1cn2cc(-c3cc4ccc(CCCCN(C)CCO)cc4oc3=O)nc2c(C)n1 [Compound 903, 3-(6,8-dimethylimidazo[1,2-a]pyrazin-2-yl)-7-{4-[(2-hydroxyethyl)(methyl)amino]butyl}-2H-chromen-2-one]	< 0.1	300 to 1000	**** (fold increase between >1.5 and ≤1.65)	156 to 160	–
CCN1C[C@@H]2C[C@H]1CN2c1ccc2cc(-c3cn4cc(Cl)nc(C)c4n3)c(=O)oc2c1 [Compound 791, 3-(6-chloro-8-methylimidazo[1,2-a]pyrazin-2-yl)-7-[(1S,4S)-5-ethyl-2,5-diazabicyclo[2.2.1]hept-2-yl]-2H-chromen-2-one]	< 0.1	1000 to 3000	*** (fold increase between >1.35 and ≤1.5)	135 to 138	–
O=c1oc2cc(N3CCNCC3)ccc2cc1-c1cc2ncccn2c1 [Cpd 579, 7-(piperazin-1-yl)-3-(pyrrolo[1,2-a]pyrimidin-7-yl)-2H-chromen-2-one]	0.3 to 1	–	* (maximum fold increase of ≤1.2)	235 to 238	–
C[C@@H]1CN(c2ccc3cc(-c4cn5cc(F)cnc5n4)c(=O)oc3c2)C[C@H](C)N1 [Compound 491, 7-[(3R,5S)-3,5-dimethylpiperazin-1-yl]-3-(6-fluoroimidazo[1,2-a]pyrimidin-2-yl)-2H-chromen-2-one]	1 to 3	–	** (fold increase between >1.2 and ≤1.35)	275 to 281	–
C[C@@H]1CN(c2ccc3cc(-c4cn5cc(Cl)cnc5n4)c(=O)oc3c2)C[C@H](C)N1 [Compound 349, 3-(6-chloroimidazo[1,2-a]pyrimidin-2-yl)-7-[(3R,5S)-3,5-dimethylpiperazin-1-yl]-2H-chromen-2-one]	1 to 3	–	* (maximum fold increase of ≤1.2)	265 to 271	–
